Assay results as given in patent US20260276626A1, “METHOD FOR SCREENING THERAPEUTIC AGENT FOR MUSCLE WEAKNESS-RELATED DISEASES” (ENCELL CO., LTD., priority 2023, published 2026).

What was measured:
Assay type in all cases: cell-based, mouse
MuRF-1 = MuRF-1 mRNA expression level in myotubes (qPCR); conditions: 40 μM
Method: (§1) The C2C12 mouse myoblast cell line was cultured in a culture medium containing 90% DMEM/HG, 10% fetal bovine serum (FBS), and 100 unit/ml penicillin/streptomycin at 37° C. under 5% CO2 condition.
(§2) 100,000 cells were seeded in 6-well plate. After 4 days, the medium was replaced with a differentiation medium containing 5% horse serum and 100 unit/ml penicillin/streptomycin, and 95% DMEM/HG for differentiation into myotubes at 100% confluence. Here, the date on which the culture medium was replaced with the differentiation medium was designated as day 0, and the differentiation medium was replaced with fresh differentiation medium every day from day 3 to day 5.
(§3) The medium was removed on day 5 to induce muscle atrophy and/or muscle loss, and the culture medium was treated with mitomycin C (hereinafter referred to as MMC) at concentrations of 20 μM, 40 μM, and 100 μM for 24 hours, respectively. An optical microscopic observation was used to identify changes that occurred during the process of muscle atrophy and/or muscle loss. […]
(§4) RNA was extracted from the cells using AccuPrep®Universal RNA Extraction Kit (Bioneer). CDNA was synthesized using SuperScript™ IV Reverse Transcriptase purchased from Invitrogen, and quantitative real-time polymerase chain reaction (qPCR) was performed using PowerSYBR green PCR Master Mix from Applied biosystem to confirm the mRNA expression level. […]

C2C12 myotubes = assay: Morphological changes in myotubes by optical microscopic observation
Method: as §1, §2
as §3, with “loss. After a predetermined period of time, the medium was removed, and the cells were treated with 0.25% trypsin-ethylene diamine tetra-acetic acid (EDTA, Gibco), and the cells were collected in a culture medium, followed by centrifugation at 1,500 rpm for 3 minutes.” for “loss.”

Atrogin-1 = Atrogin-1 mRNA expression level in myotubes (qPCR); conditions: 40 μM
Method: as §1, §2, §3, §4

[1] = C2C12 myotubes, 24 hours, compared with 20 μM, dexamethasone 100 μM and control (FIG. 5)
[2] = serum-free medium, 24 hours (FIG. 7)

CO[C@@]12[C@H](COC(N)=O)C3=C(C(=O)C(C)=C(N)C3=O)N1C[C@@H]1N[C@@H]12 [mitomycin C]
mRNA expression level of MuRF-1 (MuRF-1; [1]): the highest | mRNA expression level of MuRF-1 (MuRF-1; [2]): maintained in an increased state | thickness, length, and number of myotubes (C2C12 myotubes; C2C12 myotubes, 40 μM or less, 24-hour treatment, vs untreated control (FIG. 4)): significantly reduced | thickness, length, and number of myotubes (C2C12 myotubes; serum-free medium, 40 μM, 24 hours (FIG. 6)): significant decrease | mRNA expression level of Atrogin-1 (Atrogin-1; [1]): the highest | mRNA expression level of Atrogin-1 (Atrogin-1; [2]): maintained in an increased state
